We go through one compound from patent US20230067194A1, “METHOD FOR TREATMENT OF ACQUIRED COGNITIVE DEFICITS” (CORNELL UNIVERSITY, priority 2020, published 2023).

One test relates to SBI mice. The test is described as follows: Sleep-wake cycle LFP power spectra in secondary-blast injury (SBI) mice with sodium oxybate injection. In kind it is in vivo. Here is the method: FIGS. 7A-7B. Effects of sodium oxybate injection on the sleep-wake cycle of SBI mice. The top panels display the delta power during the dark (blue; daytime) and light (yellow; sleep time) within 24 hours in (A) Non-REM, or (B) Wake mice. The pink vertical lines represent the time in which animals received an intraperitoneal injection of sodium oxybate (SO; 400 mg/Kg) diluted in saline. The bottom panels show the LFP power spectra obtained from sleep periods and wake periods with and without sodium oxybate. In (A), the dark blue line represents NREM sleep without sodium oxybate administration and the red line represents NREM sleep with sodium oxybate administration. In (B), the dark blue line represents Wake without sodium oxybate administration during prior sleep and the red line represents Wake with sodium oxybate administration during prior sleep. Application of sodium oxybate during the night results in elevation of delta (1-5 Hz) LFP power and increases during the subsequent wakeful period in beta (15-30 Hz) and gamma (>30 Hz) LFP. Importantly, consistent with our theory because of the short half-life of sodium oxybate these changes in wakeful LFP power reflect alteration of cortical neuronal properties linked to the increased delta during sleep induced by sodium oxybate.
The inventors inflicted a secondary-blast injury (SBI) to mice targeting the anterior forebrain mesocircuit, which corresponds to the frontal/prefrontalcortical-pallidal thalamocortical loop systems.
The inventors examined animals' sleep-wake cycle before, after the SBI, and while injecting sodium oxybate (400 mg/Kg; FIG. 7A-7B). Local field potentials (LFPs) were recorded from the frontal area and neck-EMG activity to detect and extract the different sleep/wake cycle components—Non-REM, REM, and Wake state. The inventors examined the whole range of biological LFP frequencies before and after sodium oxybate injection by calculating power spectral density using Thomson's multi-taper method implemented using the Chronux tool box from MATLAB.

For test [1] the following is noted: cited from earlier work.
Setting [2] is: FIG. 7 legend, intraperitoneal 400 mg/Kg during prior sleep.
[3] abbreviates: wake state post-sodium oxybate injection (400 mg/Kg), 400 mg/kg.

Entries after “also recorded” stand apart in the source; their conditions may differ.

On to `O=C(O)CCCO` [sodium oxybate], for which, in the test on SBI mice (setting [2]), the “beta (15-30 Hz) LFP power during the subsequent wakeful period” value was “increases” and the “gamma (>30 Hz) LFP power during the subsequent wakeful period” value is “increases”. Besides, the “delta (1-5 Hz) LFP power” value in the test on SBI mice (FIG. 7 legend, intraperitoneal 400 mg/Kg in saline, application during the night, NREM sleep) is given as “elevation”. In the test on SBI mice (sodium oxybate 400 mg/Kg injected right before the sleep time (9 pm), frontal LFP), the “delta oscillations (1-4 Hz) LFP power in Non-REM” value is reported as “increase; also recorded: elevation”. Besides, in the test with SBI mice (setting [3]), the “beta (20-40 Hz) LFP power during the wake state” value is on record as “higher; also recorded: increases” and the “gamma (>40 Hz) LFP power during the wake state” value was “higher; also recorded: increases”. The “persistence of the elevation of delta power during the wakeful period” value in the test on SBI mice (wakeful period after night application of sodium oxybate) was “does not persist”. The “SWS (slow wave sleep)” value in test [1] (dose-dependent) is “dose-dependent upregulation”. Besides, in test [1] (in several conditions), the alpha-delta sleep entry is reported as “suppress alpha-delta sleep”.
